From patent publication US12208140B2, “Targeted delivery to beta cells” (THE BROAD INSTITUTE, INC., priority 2017, dated 2025)
“Also recorded” adds a separate entry of the source. Where two headings read alike, the source gives them in different places.

Legend:
[1] = system: human β-cells; assay: human islet cell-culture EdU proliferation assay; format: cell-based
From the text: A human islet cell-culture system and proliferation assay developed by Wagner et al. was used to not only of preserve β-cell function over 7-10 days in culture, but also identify conditions that increase β-cell division.[32] The thymidine analog 5-ethinyl-2′-deoxyuridine (EdU) was used, which, when reacted with an azide-conjugated fluorophore, enables rapid and high-quality imaging of cells that have ever gone through S phase.[34] The detection was paired with insulin immunofluorescence, followed by automated imaging and analysis to identify EdU+ins+ cells after compound treatment. Islet cells were incubated with EdU for 6 days, consistent with the low rate of human β-cell proliferation. […] The quality of the assay was verified by using as a positive control adenoviral overexpression of human CDK6 and cyclin D1.[35]
[38] […] This effect was consistent across >20 human islet donors, irrespective of age, gender, BMI, or cause of death.

[2] = system: human β-cells; assay: glucose-stimulated insulin secretion (GSIS) in dissociated islet cells; format: cell-based; conditions: cells treated for 12 days
From the text: In the DMSO-treated state, glucose stimulated ˜2-fold increase in insulin secretion in dissociated islet cells. […] Although incompletely understood, the loss of basal secretion may be due to cell-death effects on other cells in the culture system.

[3] = target: DYRK1B (Homo sapiens, UniProt Q9Y463); assay: kinase activity profiling, DYRK1B; format: biochemical
[4] = target: T1, DYRK2 (Homo sapiens, UniProt Q92630); assay: kinase activity profiling, DYRK2; format: biochemical
T1 sequence (Q92630 1-601): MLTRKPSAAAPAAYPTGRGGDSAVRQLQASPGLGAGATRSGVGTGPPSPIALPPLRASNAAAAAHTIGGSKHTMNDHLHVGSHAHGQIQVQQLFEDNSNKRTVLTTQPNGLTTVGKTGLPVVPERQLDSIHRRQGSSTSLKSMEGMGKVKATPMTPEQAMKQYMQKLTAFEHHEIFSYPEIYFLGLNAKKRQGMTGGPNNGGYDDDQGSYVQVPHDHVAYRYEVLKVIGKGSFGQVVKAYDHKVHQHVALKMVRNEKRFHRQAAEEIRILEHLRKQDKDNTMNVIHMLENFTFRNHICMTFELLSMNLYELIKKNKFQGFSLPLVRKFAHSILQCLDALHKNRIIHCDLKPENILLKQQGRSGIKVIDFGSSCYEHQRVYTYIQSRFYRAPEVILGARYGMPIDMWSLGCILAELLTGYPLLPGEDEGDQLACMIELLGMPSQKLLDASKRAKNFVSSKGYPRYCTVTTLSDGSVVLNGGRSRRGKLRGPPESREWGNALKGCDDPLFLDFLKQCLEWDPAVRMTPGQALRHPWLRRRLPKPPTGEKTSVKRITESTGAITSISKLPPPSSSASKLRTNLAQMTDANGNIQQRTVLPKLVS

[5] = target: CLK1 (Homo sapiens, UniProt P49759); assay: kinase activity profiling, CLK1; format: biochemical
[6] = target: CLK2 (Homo sapiens, UniProt P49760); assay: kinase activity profiling, CLK2; format: biochemical
[7] = target: CLK4 (Homo sapiens, UniProt Q9HAZ1); assay: kinase activity profiling, CLK4; format: biochemical
[8] = system: human β-cells; assay: human islet grafts in NSG mice, β-cell replication; format: in vivo, human islets transplanted in NSG mice
From the text: 1) Establishing a humanized mouse model: The humanized mouse model is established according to Kulkarni et al.[22,23] Briefly, the immunodeficient NOD.Cg-Prkdc^scidIl2rg^tm1Wj1SzJ mouse strain, commonly known as NOD-scid gamma (NSG), combines features of the NOD/ShiLtJ background and […], known as the severe combined immune deficiency mutation (scid), which essentially eliminates adaptive immunity. This strain has utility in studies of hematopoietic and cancer stem cells and of islet transplantation.
A separate group of mice with human islet transplants were injected with DMSO as vehicle controls, and sham-operated animals were used as an additional control group. The injection was repeated twice a week for 3 weeks. In the final week, we injected BrdU (100 mg/kg) daily for 4 days, and six hours after the last BrdU injection the pancreas was harvested. β-cell replication was assessed using previously described protocols.[23] For sivelestat experiments, osmotic pumps loaded with compound (300 μg/kg/day) were implanted into mice, and were treated for 14 days. Mice were provided BrdU in drinking water and injected i.p. on days 8, 11, and 14. Islets were harvested five hours after the last BrdU injection.

[9] = system: liver, adipose, muscle, and kidney tissue; assay: proliferation of other tissues in 5-IT-treated mice; format: in vivo; conditions: 0.625 mg/kg i.p. twice a week for 3 weeks
[10] = system: INS-1E; assay: reaction-based probe (DA-ZP1) fluorescence in a β-cell line; conditions: compared to other cell types
Protocol: (§1) All the imaging experiments were performed in 96 well plate. INS-1E, PANC1, αTC1.6, HEK293T and other cell types were plated in 96 well plate. 70 μL, 4×PFA was added in each well to fix the cells. After 15 minutes, all the wells were washed with PBS. After washing with PBS, 70 μL DAPI (1×) (nuclear stain) was added along with appropriate concentration of DAZP-1. The staining process was continued for 20 minute and 100 μL PBS as was added in each well.

[11] = system: aTC1.6, PANC1, HEK293T and cells of other lineages; assay: reaction-based probe (DA-ZP1) fluorescence in non-β cell types
Protocol: as §1

[12] = system: β-cells and alpha cells of dissociated rat or human islets; assay: probe incubation in dissociated islets, co-staining for insulin and glucagon; format: cell-based
Protocol: (§2) Next, this probe was incubated in dissociated rat or human islets, co-staining for insulin to identify β-cells and glucagon to identify alpha cells. […] Using confocal microscopy, distinct green-fluorescent vesicles were observed within β-cells (FIG. 3D), showing the high degree of resolution for the localization of this probe. Finally, 10-12-week old C57BL/6 mice were injected intraperitoneally with a single dose of 50 mg/kg DA-ZP1 or DMSO.

[13] = system: islets; assay: islet fluorescence after intraperitoneal injection of DA-ZP1; format: in vivo; conditions: single dose 50 mg/kg intraperitoneally, 10-12-week old C57BL/6 mice
Protocol: as §2

[14] = system: mouse islets (β-cells); assay: sivelestat treatment of mouse islets, β-cell proliferation; conditions: in vivo
Protocol: (§3) Next, sivelestat, a small-molecule inhibitor of elastinolytic proteases and thus a partial mimic of serpinB1 activity, was tested for β-cell proliferation. […] Thus, small molecules promote β-cell proliferation in human islets transplanted in vivo by targeting two independent pathways.

[15] = system: liver, skeletal muscle, visceral and subcutaneous adipose tissue, spleen, or kidney; format: in vivo, mouse; conditions: data not shown
Protocol: as §3

[16] = system: mouse islets (β-cells); assay: mouse islet culture, Ki67 proliferation; format: cell-based
From the text: (§4) Liver was found as the source of a secreted factor in this model that can induce β-cell proliferation in mouse and human islets.[24] A proteomics effort using liver, liver explant-conditioned media, hepatocyte-conditioned media, and plasma led to the discovery that serpin B1, a protease inhibitor that targets elastases, is enriched in serum from LIRKO mice (FIG. 10).[1]

[17] = system: human islets (β-cells); assay: human islet β-cell proliferation with rSerpinB1; format: cell-based
From the text: as §4

[18] = human islet cells, 6 days of treatment
[19] = 0.625 mg/kg i.p. twice a week for 3 weeks

Sequence of CLK2 (P49760 whole entry): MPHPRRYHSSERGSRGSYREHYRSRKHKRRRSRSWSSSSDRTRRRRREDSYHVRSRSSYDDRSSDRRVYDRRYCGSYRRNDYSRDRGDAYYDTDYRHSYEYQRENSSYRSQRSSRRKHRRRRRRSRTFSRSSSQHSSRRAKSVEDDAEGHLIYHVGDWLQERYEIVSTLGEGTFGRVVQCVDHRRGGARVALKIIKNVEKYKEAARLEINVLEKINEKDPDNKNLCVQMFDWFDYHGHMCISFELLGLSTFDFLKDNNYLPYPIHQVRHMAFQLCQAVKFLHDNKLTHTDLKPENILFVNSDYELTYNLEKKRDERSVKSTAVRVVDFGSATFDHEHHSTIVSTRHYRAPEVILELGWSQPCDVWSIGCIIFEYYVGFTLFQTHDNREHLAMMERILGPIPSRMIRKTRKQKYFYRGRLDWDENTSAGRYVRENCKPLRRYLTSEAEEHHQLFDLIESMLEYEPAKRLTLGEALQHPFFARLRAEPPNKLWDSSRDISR
Sequence of CLK1 (P49759 whole entry): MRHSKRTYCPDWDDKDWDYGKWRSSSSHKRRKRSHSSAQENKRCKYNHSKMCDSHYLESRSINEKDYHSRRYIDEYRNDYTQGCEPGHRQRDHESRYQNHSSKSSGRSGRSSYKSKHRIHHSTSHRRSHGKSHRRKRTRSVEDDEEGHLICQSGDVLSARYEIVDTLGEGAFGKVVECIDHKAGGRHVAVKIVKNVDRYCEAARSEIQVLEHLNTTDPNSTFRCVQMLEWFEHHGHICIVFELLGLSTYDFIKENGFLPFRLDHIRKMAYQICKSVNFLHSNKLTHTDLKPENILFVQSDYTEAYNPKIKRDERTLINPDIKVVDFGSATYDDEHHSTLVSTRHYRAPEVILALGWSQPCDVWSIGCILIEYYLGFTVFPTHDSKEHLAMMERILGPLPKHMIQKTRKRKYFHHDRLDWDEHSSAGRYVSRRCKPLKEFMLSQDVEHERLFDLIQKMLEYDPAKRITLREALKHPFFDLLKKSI
Sequence of DYRK1B (Q9Y463 whole entry): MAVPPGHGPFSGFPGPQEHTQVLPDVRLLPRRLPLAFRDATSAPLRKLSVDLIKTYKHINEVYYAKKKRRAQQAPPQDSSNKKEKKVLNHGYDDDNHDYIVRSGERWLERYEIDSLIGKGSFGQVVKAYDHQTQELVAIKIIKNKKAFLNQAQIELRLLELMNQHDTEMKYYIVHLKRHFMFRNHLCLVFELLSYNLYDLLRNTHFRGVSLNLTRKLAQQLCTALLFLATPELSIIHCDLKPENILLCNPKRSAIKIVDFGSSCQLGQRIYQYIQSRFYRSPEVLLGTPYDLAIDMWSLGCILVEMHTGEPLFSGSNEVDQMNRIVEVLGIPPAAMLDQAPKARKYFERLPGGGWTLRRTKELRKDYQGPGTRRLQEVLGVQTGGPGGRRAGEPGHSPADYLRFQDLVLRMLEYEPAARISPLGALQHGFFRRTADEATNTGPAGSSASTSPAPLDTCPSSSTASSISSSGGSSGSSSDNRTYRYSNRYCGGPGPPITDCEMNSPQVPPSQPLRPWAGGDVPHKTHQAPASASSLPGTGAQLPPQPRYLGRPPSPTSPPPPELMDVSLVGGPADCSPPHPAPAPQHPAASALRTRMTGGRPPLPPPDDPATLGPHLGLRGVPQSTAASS
Sequence of CLK4 (Q9HAZ1 whole entry): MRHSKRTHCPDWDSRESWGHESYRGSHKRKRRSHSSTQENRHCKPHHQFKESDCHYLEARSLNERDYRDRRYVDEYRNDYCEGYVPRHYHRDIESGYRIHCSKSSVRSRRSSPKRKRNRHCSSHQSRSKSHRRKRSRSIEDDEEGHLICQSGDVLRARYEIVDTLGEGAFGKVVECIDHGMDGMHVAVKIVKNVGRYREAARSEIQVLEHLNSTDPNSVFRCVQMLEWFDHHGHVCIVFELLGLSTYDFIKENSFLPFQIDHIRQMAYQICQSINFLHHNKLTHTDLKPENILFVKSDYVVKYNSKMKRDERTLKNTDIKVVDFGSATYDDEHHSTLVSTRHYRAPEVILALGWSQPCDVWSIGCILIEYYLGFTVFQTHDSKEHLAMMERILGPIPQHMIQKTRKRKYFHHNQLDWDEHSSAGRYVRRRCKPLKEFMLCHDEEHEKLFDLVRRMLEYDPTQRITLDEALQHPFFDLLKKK

Nc1ncnc2c1c(I)cn2[C@@H]1O[C@H](CO)[C@@H](O)[C@H]1O [5-IT, 5-iodotubercidin]
concentrations toxic to cells ([1]; human islet cells): greater than 1 μM | effect on EdU incorporation / β-cell proliferation ([1]; human islet cells): promotes | concentration of maximal effect on proliferation [1, 18]: 1 µM | increase in proliferation (EdU incorporation) [1, 18]: ~10 fold | proliferation of the other cell types in the heterogeneous culture system ([1]; non-β cells of human islet culture): did not induce proliferation | baseline secretion under low-glucose conditions [2]: decreased somewhat in a dose-dependent manner | glucose-stimulated insulin secretion (GSIS) [2]: an increase in GSIS was observed | IC50 [3]: 10 nM | IC50 [4]: 6 nM | IC50 [5]: 36 nM | IC50 [6]: 10 nM | IC50 [7]: 14 nM | increase in BrdU incorporation in human islet grafts [8, 19]: ~5 fold | mitosis by Ki67 and pHH3 immunostaining in human islet grafts [8, 19]: enhanced mitosis was confirmed | proliferation of liver, adipose, muscle, and kidney tissue, control vs treated mice [9]: No significant differences

Nc1ncnc2nc(-c3ccc(N4CCOCC4)nc3)cc(-c3cccc(Br)c3)c12 [ABT-702, 4-amino-5-(3-bromophenyl)-7-(6-morpholinopyridin-3-yl)pyrido[2,3-d]pyrimidine]
effect on EdU incorporation / β-cell proliferation ([1]; human islet cells): does not; also recorded: no effect

CC(=O)Oc1c(Cl)cc2c(c1CN(Cc1ccccn1)Cc1ccccn1)Oc1c(cc(Cl)c(OC(C)=O)c1CN(Cc1ccccn1)Cc1ccccn1)C21OC(=O)c2ccccc21 [DA-ZP1]
fluorescence in β-cells (INS-1E) [10]: high average fluorescent cell intensity and high % fluorescence-positive cells | fluorescence in β-cells (INS-1E) ([10]; listed as reaction-based probe): highly fluorescent | fluorescence / labeling in other cell types [11]: do not observe non-specific labeling | fluorescence / labeling in other cell types ([11]; listed as reaction-based probe): minimal background fluorescence | overlap between glucagon-positive and zinc probe-positive cells [12]: very little to no overlap | overlap between insulin-positive and zinc probe-positive cells [12]: high degree of overlap | fluorescence in islet sections [13]: Fluorescence was detected

COc1ccc2c(c1)[nH]c1c(C)nccc12 [harmine]
EdU+ins+ cells ([1]; 5 and 10 μM, 6-days treatment, human islet cells): dose-dependent increase | effect on EdU incorporation / β-cell proliferation ([1]; human islet cells): promotes β-cell proliferation in a dose-dependent manner

CC(C)(C)C(=O)Oc1ccc(S(=O)(=O)Nc2ccccc2C(=O)NCC(=O)O)cc1 [sivelestat]
proliferation of human β-cells (islet grafts) ([8]; osmotic pumps 300 μg/kg/day, 14 days): increased proliferation | β-cell proliferation in mouse islets [14]: increased β-cell proliferation | effect on liver, skeletal muscle, visceral and subcutaneous adipose tissue, spleen, or kidney [15]: without a significant effect

B1: rSerpinB1: recombinant human serpinB1, a protease inhibitor that targets elastases (protein, UniProt P30740 1-379, looked up)
Leukocyte elastase inhibitor: MEQLSSANTRFALDLFLALSENNPAGNIFISPFSISSAMAMVFLGTRGNTAAQLSKTFHFNTVEEVHSRFQSLNADINKRGASYILKLANRLYGEKTYNFLPEFLVSTQKTYGADLASVDFQHASEDARKTINQWVKGQTEGKIPELLASGMVDNMTKLVLVNAIYFKGNWKDKFMKEATTNAPFRLNKKDRKTVKMMYQKKKFAYGYIEDLKCRVLELPYQGEELSMVILLPDDIEDESTGLKKIEEQLTLEKLHEWTKPENLDFIEVNVSLPRFKLEESYTLNSDLARLGVQDLFNSSKADLSGMSGARDIFISKIVHKSFVEVNEEGTEAAAATAGIATFCMLMPEENFTADHPFLFFIRHNSSGSILFLGRFSSP
effect on Ki67+ insulin+ cells [16]: dose-dependent effect | increase in the percentage of Ki67+ins+ cells ([16]; dose of 1 μg/mL): 2 fold | effect on Ki67+ insulin+ cells ([16]; listed as serpinB1): dose-dependent effect | effect on Ki67+ insulin+ cells ([16]; listed as untagged SerpinB1): promotes | β-cell proliferation from human islets [17]: dose-dependent increase

B2: inactive N-tagged serpin B1 construct: inactive N-tagged serpin B1 construct from GeneCopoeia (protein, UniProt P30740 1-379, looked up)
Leukocyte elastase inhibitor: B1 Leukocyte elastase inhibitor
modifications: N-terminal tag; inactive
effect on Ki67+ insulin+ cells [16]: no impact
